What was measured:
Type in all cases: in vivo, SD rats
α-SMA = α-SMA expression in lung tissue by immunohistochemistry, Example 1
Procedure: (§1) A rat pulmonary fibrosis model was prepared using a one-time intratracheal instillation of bleomycin. After the rat was anesthetized by intraperitoneal injection of 10% chloral hydrate (3.0 ml/kg), it was tilted back and fixed on a rat board and irradiated with light source on the throat, and the glottis was seen to open and close in an orderly manner with breathing when the tongue was gently lifted to open the mouth. The indwelling needle was gently pushed into the trachea as the glottis opened and closed, the needle core was pulled out, and whether tracheal intubation was successful was verified by swing of a cotton thread. Bleomycin was injected into the trachea at a dose of 5 mg/kg, and 0.5 ml of air was further injected to ensure the depth of the drug. The rat was held upright and rocked from side to side to ensure even distribution of the drug in the lung. The anesthetized rat was placed on an electric blanket to maintain body temperature. After waking up, it is placed into a corresponding cage. The rats were fed normally until the 28th day, drinking pure water and eating sterile feed freely every day.
(§2) The modeling day was set as day 0.
(§3) The detection was performed by Immunohistochemistry.
(§4) The lung tissue was sliced into 4 μm sections and baked at 60° C. for 3 hours. The paraffin sections were dewaxed in xylene, dehydrated in gradient alcohols, and washed in distilled water for 2 minutes in order. The washed sections were then boiled in 0.01 M citrate buffer in a microwave oven for antigen retrieval. A 3% […] was added dropwise to the sections to block endogenous peroxidase. After the sections were blocked with a 5% BSA blocking solution and incubated at 37° C. for 30 minutes, the primary antibody was added dropwise thereto (the dilution ratio was 1:500 for CoL I, and 1:2000 for α-SMA), and the sections were incubated overnight in a humid box at 4° C. HRP-labeled goat anti-rabbit secondary antibody was added dropwise, and the sections were incubated at 37° C. for 20 minutes; and then SABC was added dropwise and the sections were incubated at 37° C. for 30 minutes. Thereafter, a freshly prepared DAB chromogenic solution was added dropwise, and the sections were observed under a microscope, and the color development was stopped once brownish yellow appeared. The sections were counterstained with hematoxylin for 30 seconds, differentiated with a 1% hydrochloric acid in alcohol for 3 seconds; and dehydrated in gradient alcohols in sequence. The sections were dried in a fume hood, sealed with neutral gum, and dried in the air. Images were collected with Olympus-DP70 microscope (Image-Pro Plus 6.0, IPP 6.0), 6 fields were randomly selected for each section, and the image integrated optical density (IOD) was calculated.

[1] = test system: rat pulmonary fibrosis model; test: Lung function (FinePointe PFT) in bleomycin pulmonary fibrosis rats, Example 1
Procedure: as §1, §2
Before collecting the sample, the rat was anesthetized and submitted to a tracheotomy, and the tracheal tube was inserted into the rat's trachea and fixed. The FinePointe™ series PFT measurement system was used to detect the rat's forced vital capacity (FVC), forced expiratory volume in 0.3 s (FEV 0.3), vital capacity (VC), and dynamic lung compliance (Cydn).

[2] = test system: rat pulmonary fibrosis model; test: Lung tissue pathology, H&E and Masson staining, Szapiel scoring, Example 1
Procedure: as §1, §2
The left lung was fixed with 10% formaldehyde for 72 hours, embedded in paraffin, sectioned at 4 μm for HE and Masson staining.
Pathological scoring of alveolitis and pulmonary fibrosis was performed according to the Szapiel method, the degree of alveolitis was determined by HE staining, and the degree of pulmonary fibrosis was determined by Masson staining.
The pathological changes in lung tissue were observed using an optical microscope. 6 sections were selected from each group and 6 fields were selected from each section.

[3] = test system: rat pulmonary fibrosis model; test: R value comprehensive evaluation of 8 indicators, Example 1
Procedure: The data were standardized and the Rcomprehensive value data set was established (Rcomprehensive=R−(−2)). […] When Rcomprehensive<1, it means that the comprehensive corrective degree of the drug on such indicators exceeds the normal value.
A total of 8 indicators, i.e., lung function (FVC, FEV0.3, IC, Cydn), lung tissue pathology (H&E staining, Masson staining), and collagen deposition (CoL I, α-SMA) were calculated using the R value comprehensive evaluation method.

[4] = test system: rat pulmonary fibrosis model; test: Lung function in bleomycin pulmonary fibrosis rats, Example 2
Procedure: In order to evaluate the difference in the efficacy of isoliquiritigenin and paeoniflorin alone and in combination, a study was conducted by splitting the Formula 8 into isoliquiritigenin, paeoniflorin and combination thereof, each adopting the dose of 0.55 mg/kg/d.
The experimental materials and research methods were the same as those in Example 1.
A total of 72 rats were randomly divided into blank group, model group, isoliquiritigenin group, paeoniflorin group, combination group, and pirfenidone group, 6 groups in total, 12 rats in each group, and 6 female/group, 6 male/group. The modeling day was set as day 0. From the 29th day, the blank group (normal rats without modeling) and the model group were administered intragastrically with physiological saline (2 ml/rat), the isoliquiritigenin group was administered with isoliquiritigenin (0.55 mg/kg/d), the paeoniflorin group was administered with paeoniflorin (0.55 mg/kg/d), and the combination group was administered with isoliquiritigenin+paeoniflorin (0.55 mg/kg/d), once daily, for 14 days, and the samples were collected at the end of the 42nd day.
Before collecting the sample, the rats were anesthetized and submitted to a tracheotomy, and the tracheal tube was inserted into the rat's trachea and fixed. The FinePointe™ series PFT measurement system was used to detect the rat's forced vital capacity (FVC), forced expiratory volume in 0.3 s (FEV 0.3), vital capacity (VC), and dynamic lung compliance (Cydn).

[5] = test system: rat pulmonary fibrosis model; test: Lung tissue pathology, H&E and Masson staining, Szapiel scoring, Example 2
Procedure: The experimental materials and research methods were the same as those in Example 1. […] The modeling day was set as day 0. […] The left lung was fixed with 10% formaldehyde for 72 hours, embedded in paraffin, sectioned at 4 μm for HE and Masson staining. Pathological scoring of alveolitis and pulmonary fibrosis was performed according to the Szapiel method, the degree of alveolitis was determined by HE staining, and the degree of pulmonary fibrosis was determined by Masson staining. The pathological changes in the lung tissue were observed using an optical microscope. 6 sections were selected from each group and 6 fields were selected from each section.

CoL I = CoL I expression in lung tissue by immunohistochemistry, Example 1
Procedure: as §1, §2, §3, §4

[6] = test system: rat pulmonary fibrosis model; test: Lung function in bleomycin pulmonary fibrosis rats, Example 2; settings: isoliquiritigenin, paeoniflorin, combination each 0.55 mg/kg/d intragastric, day 29-42, X ± SE, N = 10
[7] = lung tissue IHC, doses per Table 4, 14 days, X ± SE, N = 6
[8] = bleomycin 5 mg/kg intratracheal, intragastric once daily day 29-42, doses per Table 4, X ± SE, N = 10
[9] = isoliquiritigenin, paeoniflorin, combination each 0.55 mg/kg/d intragastric, day 29-42, X ± SE, N = 10

paeoniflorin [Formula 7]
expression of α-SMA protein, compared with the model group (α-SMA; P<0.05): significantly reduced | α-SMA (IOD) (α-SMA; [7]): 10.57 ± 0.36 IOD | FEV0.3, compared with the model group ([1]; P<0.01, P<0.05): significantly increased | FVC, compared with the model group ([1]; P<0.01, P<0.05): significantly increased | IC, compared with the model group ([1]; P<0.01, P<0.05): significantly increased | FEV0.3, compared with the pirfenidone group ([1]; P<0.05): increased | FVC, compared with the pirfenidone group ([1]; P<0.05): increased | Cydn [1, 8]: 0.31 ± 0.03 mL/s | FEV0.3 [1, 8]: 14.70 ± 1.25^##Δ ml/s | FVC [1, 8]: 15.95 ± 1.36^##Δ ml/s | IC [1, 8]: 9.84 ± 0.75 mL/s | Alveolitis (score) ([2]; H&E staining, score 0-3, doses per Table 4, 14 days, X ± SE, N = 6): 1.44 ± 0.27 score | Pulmonary fibrosis (score) ([2]; Masson staining, score 0-3, doses per Table 4, 14 days, X ± SE, N = 6): 0.94 ± 0.16 score | pulmonary fibrosis scores, compared with the model group ([2]; P<0.01, P<0.05): significantly reduced | R value comprehensive evaluation, comparison between treatment groups [3]: better than the Formula 3 (icariin), the Formula 4 (isoliquiritigenin), and the Formula 5 (nobiletin) | Total efficacy related indicator R value ([3]; 8 indicators, R=1 best effect, R=2 no corrective effect, X ± SE, N = 8): 1.41 ± 0.27^##□▪ | FEV0.3, compared with the model group ([4]; P<0.01, P<0.05): increased | FVC, compared with the model group ([4]; P<0.01, P<0.05): increased | Cydn [4, 9]: 0.31 ± 0.54 mL/s | FEV0.3 [4, 9]: 12.88 ± 0.98 mL/s | FVC [4, 9]: 13.49 ± 1.17 mL/s | Alveolitis (score) ([5]; H&E staining, each 0.55 mg/kg/d, 14 days, X ± SE, N = 6): 1.52 ± 0.29 score | Pulmonary fibrosis (score) ([5]; Masson staining, each 0.55 mg/kg/d, 14 days, X ± SE, N = 6): 1.65 ± 0.19 score | pulmonary fibrosis score, compared with the model group ([5]; P<0.01, P<0.05): could reduce | expression of CoL I protein, compared with the model group (CoL I; P<0.01, P<0.05): significantly reduced | COL I (IOD) (CoL I; [7]): 13.61 ± 1.90 IOD | IC [6]: 9.62 ± 0.54 mL/s

From patent US20260108548A1, “COMPOSITION OF PAEONIFLORIN AND ISOLIQUIRITIGENIN AND USE THEREOF” (HENAN UNIVERSITY OF CHINESE MEDICINE, priority 2023, published 2026)
